# System: tubulin (αβ-tubulin; colchicine site in β-subunit)
# Test: [3H]colchicine competition on purified tubulin
# Format: biochemical
row,Structure (SMILES),IC50
1,"O=c1cc(-c2ccccc2)[nH]c2ccc3c(ccn3CC3CC3)c12 [MG-2477, 3-cyclopropylmethyl-7-phenyl-3H-pyrrolo[3,2-f]quinolin-9(6H)-one]",900 nM
2,COc1ccc(/C=C\c2cc(OC)c(OC)c(OC)c2)cc1O [combretastatin A-4],1200 nM

# — paper PMC3234688 (2011)
